Measurements taken from patent publication US20260124184A1, “ONCE DAILY ALDOSTERONE SYNTHASE INHIBITOR (R)-(+)-5-(P-CYANOPHENYL)-5,6,7,8-TETRAHYDROIMIDAZO[L,5-A]PYRIDINE” (priority 2022, published 2026).
Like-named read-outs stand apart in the source and are kept apart here.

Test system: patients with primary aldosteronism
Experimental: A double-blind, randomized, Phase 2 trial was conducted between November 2019 and June 2022 at 11 centres in Italy, Switzerland and the Netherlands (NCT04007406). […] Patients requiring fixed-dose antihypertensive therapy continued treatment throughout the study; steroid therapies, β-adrenergic and renin-angiotensin-aldosterone system blockers were not permitted. At 14-day intervals, office blood pressures were recorded and blood samples were taken for measurement of steroid and peptide hormones and electrolytes at a central laboratory.
A centrally calibrated and validated device (Spacelab Healthcare) was used; the device was fitted at the hospital outpatient department by medically qualified staff on day −1 and day 55 prior to supervised drug intake by the patient. The light digital monitor with convenient carry pouches takes the blood pressure reading at regular intervals by inflating and subsequently deflating customized cuffs placed around the non-dominant upper arm for 24-hour recording of about 70 readings. Patients followed their regular routines yet refrained from exercising or taking a bath or shower. In addition, to assure proper measurements, the patient was asked to sit down prior to reading, keep the cuff at the same level as the heart and rest the arm steady. The patient was also asked to keep a diary on activities, meals and sleep to document what he/she was doing just before the reading was taken. At the end of the 24-hour period, the patient was able to remove the monitor and cuff, shower or bathe and return the device to the Investigator at the clinic. The machine stored all readings as source data that were uploaded in the eCRF.
For all efficacy endpoints, changes from baseline were calculated from linear models and accompanied by 95% confidence intervals and p values. Log-transformed values were used for changes in ARR. The full analysis set (FAS) and safety set were defined as all randomized patients who received at least one dose of study drug.

[1] = 4 mg once daily, n=10, Day 1 (baseline)
[2] = 8 mg once daily, n=12, Day 1 (baseline)
[3] = 12 mg once daily, n=13, Day 1 (baseline)
[4] = all doses combined, n=35, Day 1 (baseline)
[5] = all doses combined, n=35, Day 56

With “(R)-(+)-5-(p-cyanophenyl)-5,6,7,8-tetrahydroimidazolium[1,5-a]pyridine dihydrogen phosphate [dexfadrostat phosphate]” the “change in 24-h aSBP from baseline to Day 56, mean” value (“change in 24-h aSBP … mean” below) (4 mg once daily, n=10) was −8.10 mmHg, the “change in 24-h aSBP from baseline to Day 56, median” value (“change in 24-h aSBP … median” below) (4 mg once daily, n=10) was −8.17 mmHg and the “24-h aSBP, mean” value [1] was 136.84 mmHg. The “24-h aSBP, median” value [1] was 138.38 mmHg, the “24-h aSBP, mean” value (4 mg once daily, n=10, Day 56) was 128.74 mmHg and the “24-h aSBP, median” value (4 mg once daily, n=10, Day 56) was 129.43 mmHg. The “change in 24-h aSBP … mean” value (8 mg once daily, n=12) was −13.95 mmHg, the “change in 24-h aSBP … median” value (8 mg once daily, n=12) was −13.33 mmHg and the “24-h aSBP, mean” value [2] was 144.88 mmHg. For the same substance, the “24-h aSBP, median” value [2] was 144.76 mmHg, the “24-h aSBP, mean” value (8 mg once daily, n=12, Day 56) was 130.93 mmHg and the “24-h aSBP, median” value (8 mg once daily, n=12, Day 56) was 129.43 mmHg. For the same substance, the “change in 24-h aSBP … mean” value (12 mg once daily, n=13) was −9.81 mmHg, the “change in 24-h aSBP … median” value (12 mg once daily, n=13) was −12.43 mmHg and the “24-h aSBP, mean” value [3] was 144.96 mmHg. For the same substance, the “24-h aSBP, median” value [3] was 146.87 mmHg, the “24-h aSBP, mean” value (12 mg once daily, n=13, Day 56) was 135.15 mmHg and the “24-h aSBP, median” value (12 mg once daily, n=13, Day 56) was 130.82 mmHg. For the same substance, the “decrease in mean 24-h aSBP from baseline to day 56” value (all dose groups combined, p<0.0001) was 10.7 mmHg, the “change in aSBP from baseline to Day 56, mean” value (all doses combined, n=35) was −10.74 mmHg and the “change in aSBP from baseline to Day 56, median” value (all doses combined, n=35) was −12.23 mmHg. For the same substance, the “24-hour ambulatory SBP (aSBP), mean” value [4] was 142.62 mmHg, the “24-hour ambulatory SBP (aSBP), median” value [4] was 143.4 mmHg and the “24-hour ambulatory SBP (aSBP), mean” value [5] was 131.87 mmHg. For the same substance, the “24-hour ambulatory SBP (aSBP), median” value [5] was 130.41 mmHg, the “LSM change in 24-hour aSBP from baseline” value (all patients, Day 1 to Day 56, FIG. 2B, p<0.0001) was −10.7 mmHg and the “effect on 24-hour aSBP” value (each dose arm, baseline to day 56) was “significant reduction (p<0.001) in 24-hour aSBP”.
